Source: patent US5593985A, “Cephalosporin compounds” (priority 1994, dated 1997)
Values after ≈ are worked out from the molar mass of the structure shown.

How the values were obtained:
Escherichia coli DC 2 = experiment: MIC, standard strain 9; assay type: cell-based; conditions: DC2, E. coli DC 2, two-fold dilution, Muller Hinton agar, 10^7 CFU/ml, 37° C., 18 hours, read-out: Minimal Inhibitory Concentration(MIC)
Procedure: (§1) In order to illustrate antibiotic effectiveness of the compounds of the present invention, the minimal inhibitory concentrations (MIC's) of the representative compounds were determined against standard strains and compared with ceftazidime and cefpirome, which were used as control compounds.
(§2) The MIC values were taken by employing a two-fold dilution method: that is, two-fold serial dilutions of each of the test compounds were made from initial concentration of […]; each 1.5 ml of them was dispersed in 13.5 ml of Muller Hinton agar medium to adjust to […]; the standard test strain which had the concentration of 10^7 CFU/ml was inoculated by medium;and these were incubated at 37° C. for 18 hours.
(§3) The test used twenty kinds of standard test strains which induced urinary tract infections, respiratory organ infections, skin soft tissue infections, plasma infections, gastrointestinal infections, central nervous system infections, most of which produce β-lactamase.

[1] = tested on: Pseudomonas aeruginosa 1592 E; experiment: MIC, standard strain 13; assay type: cell-based; conditions: P. aeruginosa 1592 E, two-fold dilution, Muller Hinton agar, 10^7 CFU/ml, 37° C., 18 hours, read-out: Minimal Inhibitory Concentration(MIC)
Procedure: as §1, §2
as §3, with “β-lactamase. The standard test strains used are as follows:” for “β-lactamase.”
13. Pseudomonas aeruginosa 1592 E

Klebsiella oxytoca = experiment: MIC, clinically separated strains; assay type: cell-based; conditions: 18 h
Procedure: as §2

Escherichia coli = experiment: MIC, clinically separated strains; assay type: cell-based; conditions: 18 h
Procedure: as §2

Providencia rettgeri = experiment: MIC, clinically separated strains; assay type: cell-based; conditions: 18 h
Procedure: as §2

ATCC = experiment: MIC, clinically separated strains; assay type: cell-based; conditions: 18 h; 20 strains
Procedure: as §2

Methicillin Resistant = experiment: MIC, clinically separated strains; assay type: cell-based; conditions: 18 h, 19 clinical strains
Procedure: as §2

D Streptococcus I = experiment: MIC, clinically separated strains; assay type: cell-based; conditions: 18 h
Procedure: as §2

Serratia spp = experiment: MIC, clinically separated strains; assay type: cell-based; conditions: 18 h
Procedure: as §2

Pseudomonas I = experiment: MIC, clinically separated strains; assay type: cell-based; conditions: 18 h
Procedure: as §2

Enterococcus II = experiment: MIC, clinically separated strains; assay type: cell-based; conditions: 18 h
Procedure: as §2

Enterococcus I = experiment: MIC, clinically separated strains; assay type: cell-based; conditions: 18 h
Procedure: as §2

[2] = tested on: Streptococcus pyogenes A 77; experiment: MIC, standard strain 2; assay type: cell-based; conditions: A77, S. pyogenes A 77, two-fold dilution, Muller Hinton agar, 10^7 CFU/ml, 37° C., 18 hours, read-out: Minimal Inhibitory Concentration(MIC)
Procedure: as §1, §2
as §3, with “β-lactamase. The standard test strains used are as follows:” for “β-lactamase.”
2. Streptococcus pyogenes A 77

Escherichia coli 1507 E = experiment: MIC, standard strain 11; assay type: cell-based; conditions: E. coli 1507 E, two-fold dilution, Muller Hinton agar, 10^7 CFU/ml, 37° C., 18 hours, read-out: Minimal Inhibitory Concentration(MIC)
Procedure: as §1, §2, §3

Escherichia coli TEM = experiment: MIC, standard strain 10; assay type: cell-based; conditions: 18 h, read-out: Minimal Inhibitory Concentration(MIC)
Procedure: as §1, §2, §3

[3] = tested on: Pseudomonas aeruginosa 1771; experiment: MIC, standard strain 14; assay type: cell-based; conditions: Pseudomonas aeruginosa; P. aeruginosa 1771; two-fold dilution, Muller Hinton agar, 10^7 CFU/ml, 37° C., 18 hours; read-out: Minimal Inhibitory Concentration(MIC)
Procedure: as §1, §2
as §3, with “β-lactamase. The standard test strains used are as follows:” for “β-lactamase.”
14. Pseudomonas aeruginosa 1771

[4] = tested on: Pseudomonas aeruginosa 1771M; experiment: MIC, standard strain 15; assay type: cell-based; conditions: 18 h, read-out: Minimal Inhibitory Concentration(MIC)
Procedure: as §1, §2
as §3, with “β-lactamase. The standard test strains used are as follows:” for “β-lactamase.”
15. Pseudomonas aeruginosa 1771M

[5] = tested on: Staphylococcus aureus SG 511; experiment: MIC, standard strain 4; assay type: cell-based; conditions: SG511, 18 h, read-out: Minimal Inhibitory Concentration(MIC)
Procedure: as §1, §2
as §3, with “β-lactamase. The standard test strains used are as follows:” for “β-lactamase.”
4. Staphylococcus aureus SG 511

Streptococcus faecium 8b = experiment: MIC, standard strain 3; assay type: cell-based; conditions: Enterococcus faecium; S. faecium 8b; two-fold dilution, Muller Hinton agar, 10^7 CFU/ml, 37° C., 18 hours; read-out: Minimal Inhibitory Concentration(MIC)
Procedure: as §1, §2
as §3, with “β-lactamase. The standard test strains used are as follows:” for “β-lactamase.”
3. Streptococcus faecium 8b

[6] = tested on: Enterobacter cloacae 1321 E; experiment: MIC, standard strain 20; assay type: cell-based; conditions: E. cloacae 1321 E, two-fold dilution, Muller Hinton agar, 10^7 CFU/ml, 37° C., 18 hours, read-out: Minimal Inhibitory Concentration(MIC)
Procedure: as §1, §2
as §3, with “β-lactamase. The standard test strains used are as follows:” for “β-lactamase.”
20. Enterobacter cloacae 1321 E

[7] = tested on: Klebsiella aerogenes 1552 E; experiment: MIC, standard strain 18; assay type: cell-based; conditions: K. aerogenes 1552 E, two-fold dilution, Muller Hinton agar, 10^7 CFU/ml, 37° C., 18 hours, read-out: Minimal Inhibitory Concentration(MIC)
Procedure: as §1, §2
as §3, with “β-lactamase. The standard test strains used are as follows:” for “β-lactamase.”
18. Klebsiella aerogenes 1552 E

Escherichia coli 0 55 = experiment: MIC, standard strain 7; assay type: cell-based; conditions: 055, E. coli 0 55, two-fold dilution, Muller Hinton agar, 10^7 CFU/ml, 37° C., 18 hours, read-out: Minimal Inhibitory Concentration(MIC)
Procedure: as §1, §2, §3

D StreptococcusII = experiment: MIC, clinically separated strains; assay type: cell-based, D Streptococcus; conditions: Streptococcus, 18 h, 19 clinical strains
Procedure: as §2

Salmonella typhimurium = experiment: MIC, standard strain 16; assay type: cell-based; conditions: Salmonella enterica; S. typhimurium; two-fold dilution, Muller Hinton agar, 10^7 CFU/ml, 37° C., 18 hours; read-out: Minimal Inhibitory Concentration(MIC)
Procedure: as §1, §2
as §3, with “β-lactamase. The standard test strains used are as follows:” for “β-lactamase.”
16. Salmonella typhimurium

[8] = read-out: range of MIC, 20 clinical strains

CO/N=C(\C(=O)N[C@@H]1C(=O)N2C(C(=O)[O-])=C(C[n+]3ccc(C(N)=O)c4c3CCC4)CS[C@H]12)c1csc(N)n1 [Example 3]
MIC (Escherichia coli DC 2): 25 µg/mL (≈ 44.8 µM) | MIC [1]: 1560 µg/mL (≈ 2800 µM) | MIC50 (Klebsiella oxytoca; 20 clinical strains): 0.013 µg/mL (≈ 0.0233 µM) | MIC90 (Klebsiella oxytoca; 20 clinical strains): 0.098 µg/mL (≈ 0.176 µM) | MIC (Klebsiella oxytoca; [8]): 0.007 to 0.391 µg/mL (≈ 0.0126 to 0.701 µM) | MIC50 (Escherichia coli; 20 clinical strains): 0.025 µg/mL (≈ 0.0448 µM) | MIC90 (Escherichia coli; 20 clinical strains): 0.049 µg/mL (≈ 0.0879 µM) | MIC (Escherichia coli; [8]): 0.025 to 0.391 µg/mL (≈ 0.0448 to 0.701 µM) | MIC50 (Providencia rettgeri; 6 clinical strains): 0.013 µg/mL (≈ 0.0233 µM) | MIC90 (Providencia rettgeri; 6 clinical strains): 0.049 µg/mL (≈ 0.0879 µM) | MIC (Providencia rettgeri; read-out: range of MIC, 6 clinical strains): 0.004 to 0.098 µg/mL (≈ 0.00717 to 0.176 µM) | MIC50 (ATCC): 0.098 µg/mL (≈ 0.176 µM) | MIC90 (ATCC): 25 µg/mL (≈ 44.8 µM) | MIC (Methicillin Resistant; read-out: range of MIC): 0.781 to 100 µg/mL (≈ 1.4 to 179 µM) | MIC50 (Methicillin Resistant): 6.25 µg/mL (≈ 11.2 µM) | MIC90 (Methicillin Resistant): 50 µg/mL (≈ 89.7 µM) | MIC50 (D Streptococcus I; 20 clinical strains): 12.5 µg/mL (≈ 22.4 µM) | MIC90 (D Streptococcus I; 20 clinical strains): 25 µg/mL (≈ 44.8 µM) | MIC (D Streptococcus I; [8]): 12.5 to 100 µg/mL (≈ 22.4 to 179 µM) | MIC50 (Serratia spp; 20 clinical strains): 0.025 µg/mL (≈ 0.0448 µM) | MIC90 (Serratia spp; 20 clinical strains): 0.049 µg/mL (≈ 0.0879 µM) | MIC (Serratia spp; [8]): 0.025 to 0.049 µg/mL (≈ 0.0448 to 0.0879 µM) | MIC50 (Pseudomonas I): 3.12 µg/mL (≈ 5.6 µM) | MIC90 (Pseudomonas I): 6.25 µg/mL (≈ 11.2 µM) | MIC (Pseudomonas I; read-out: range of MIC): 0.781 to 12.5 µg/mL (≈ 1.4 to 22.4 µM) | MIC50 (Enterococcus II; 20 clinical strains): 0.025 µg/mL (≈ 0.0448 µM) | MIC90 (Enterococcus II; 20 clinical strains): 1.56 µg/mL (≈ 2.8 µM) | MIC (Enterococcus II; [8]): 0.007 to 3.12 µg/mL (≈ 0.0126 to 5.6 µM) | MIC50 (Enterococcus I; 20 clinical strains): 0.025 µg/mL (≈ 0.0448 µM) | MIC90 (Enterococcus I; 20 clinical strains): 0.049 µg/mL (≈ 0.0879 µM) | MIC (Enterococcus I; [8]): 0.013 to 0.195 µg/mL (≈ 0.0233 to 0.35 µM) | MIC [2]: 2 µg/mL (≈ 3.59 µM) | MIC (Escherichia coli 1507 E): 25 µg/mL (≈ 44.8 µM) | MIC (Escherichia coli TEM): 49 µg/mL (≈ 87.9 µM) | MIC [3]: 391 µg/mL (≈ 701 µM) | MIC [4]: 195 µg/mL (≈ 350 µM) | MIC [5]: 391 µg/mL (≈ 701 µM) | MIC (Streptococcus faecium 8b): 12500 µg/mL (≈ 22400 µM) | MIC [6]: 7 µg/mL (≈ 12.6 µM) | MIC [7]: 25 µg/mL (≈ 44.8 µM) | MIC (Escherichia coli 0 55): 31 µg/mL (≈ 55.6 µM) | MIC (D StreptococcusII; read-out: range of MIC): 6.25 to 100 µg/mL (≈ 11.2 to 179 µM) | MIC50 (D StreptococcusII): 25 µg/mL (≈ 44.8 µM) | MIC90 (D StreptococcusII): 100 µg/mL (≈ 179 µM) | MIC (Salmonella typhimurium): 25 µg/mL (≈ 44.8 µM)
